Source: patent US20260092074A1, “Annelated Pyridines as Steroidogenesis Inhibitors, Preparation Method and Use Thereof” (Guangzhou Vinnocent Pharmaceutical Limited, priority 2022, published 2026)

Assays:
[1] = biological target: T1, human CYP11B2 (Homo sapiens, UniProt P19099); test: Inhibition of hCYP11B2 in transfected V79 cells; assay type: cell-based; conditions: hamster V79 cells expressing human CYP11B2; substrate 11-deoxycorticosterone 200 nM
T1 construct: expressed in transfected cells
T1 sequence (P19099 25-503): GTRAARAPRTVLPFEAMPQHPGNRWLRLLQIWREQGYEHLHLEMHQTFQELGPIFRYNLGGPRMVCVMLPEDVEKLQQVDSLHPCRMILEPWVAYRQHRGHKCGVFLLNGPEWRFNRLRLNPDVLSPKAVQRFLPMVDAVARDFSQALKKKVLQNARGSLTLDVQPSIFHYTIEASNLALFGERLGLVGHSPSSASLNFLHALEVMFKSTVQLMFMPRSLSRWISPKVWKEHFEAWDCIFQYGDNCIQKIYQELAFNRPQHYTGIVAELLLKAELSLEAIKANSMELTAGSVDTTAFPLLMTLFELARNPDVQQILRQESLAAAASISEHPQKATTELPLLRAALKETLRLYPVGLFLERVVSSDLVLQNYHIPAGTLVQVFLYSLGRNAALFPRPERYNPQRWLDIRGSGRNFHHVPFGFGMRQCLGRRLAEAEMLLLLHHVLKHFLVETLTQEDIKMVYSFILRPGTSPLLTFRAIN
Description: (§1) Genes of human CYP11B2 and rat NADPH-P450 reductase were transfected into hamster V79 cells using a lentivirus vector, and stably-expressing cell lines were selected by taking advantages of the associated puromycin-resistance gene. Cultured cells were diluted and seeded in a 96-well plate with an amount of approximately 10,000 per well. After pre-incubation with suitable concentrations of the test compounds for 2 hours, 11-deoxycorticosterone of 200 nM was added as the substrate to initiate the catalytic reaction. After further incubation for 30 minutes, it was quenched with ethyl acetate. Subsequently, the substrate and product(s) were quantified using LC-MS/MS or HPLC at 260 nm, and the IC50 values were calculated according to inhibitory percentage.

[2] = biological target: T2, human CYP11B1 (Homo sapiens, UniProt P15538); test: Inhibition of hCYP11B1 in transfected V79 cells; assay type: cell-based; conditions: hamster V79 cells expressing human CYP11B1; substrate 11-deoxycortisol 200 nM
T2 construct: expressed in transfected cells
T2 sequence (P15538 25-503): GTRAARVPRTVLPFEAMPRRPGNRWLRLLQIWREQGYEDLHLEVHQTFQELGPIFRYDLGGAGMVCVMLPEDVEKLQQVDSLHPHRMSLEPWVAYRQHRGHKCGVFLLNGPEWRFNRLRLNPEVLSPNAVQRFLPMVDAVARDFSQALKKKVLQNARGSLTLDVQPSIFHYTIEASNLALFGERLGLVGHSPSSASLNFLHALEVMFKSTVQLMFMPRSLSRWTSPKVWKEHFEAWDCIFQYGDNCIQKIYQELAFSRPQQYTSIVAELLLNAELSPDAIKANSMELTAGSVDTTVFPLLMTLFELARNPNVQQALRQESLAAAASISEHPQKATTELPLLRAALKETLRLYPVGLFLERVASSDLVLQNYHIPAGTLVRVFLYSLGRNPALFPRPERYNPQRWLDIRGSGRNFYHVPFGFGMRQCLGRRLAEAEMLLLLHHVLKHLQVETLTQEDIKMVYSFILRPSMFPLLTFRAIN
Description: as §1, with “CYP11B1” for “CYP11B2”, “11-deoxycortisol” for “11-deoxycorticosterone”

| IC50 [1] | IC50 [2] | SMILES |
| --- | --- | --- |
| 127 nM | 3060 nM | CCC(=O)N[C@@H]1CCCc2c(-c3ccc4c(c3)CCC(=O)N4C)cncc21 [Baxdrostat, reference compound] |
| 0.24 nM | 0.56 nM | Cc1ccc(S(=O)(=O)N2CCc3c(-c4ccc(C#N)cc4)cncc32)cc1 [C1, 4-(1-Tosyl-2,3-dihydro-1H-pyrrolo[2,3-c]pyridin-4-yl)benzonitrile] |
| 0.12 nM | 0.35 nM | N#Cc1ccc(-c2cncc3c2CCN3S(=O)(=O)c2ccc([N+](=O)[O-])cc2)cc1 [C2, 4-(1-((4-Nitrophenyl)sulfonyl)-2,3-dihydro-1H-pyrrolo[2,3-c]pyridin-4-yl)benzonitrile] |
| 0.16 nM | 0.2 nM | COc1ccc(S(=O)(=O)N2CCc3c(-c4ccc(C#N)cc4)cncc32)cc1 [C3, 4-(1-((4-Methoxyphenyl)sulfonyl)-2,3-dihydro-1H-pyrrolo[2,3-c]pyridin-4-yl)benzonitrile] |
| 0.64 nM | 0.36 nM | N#Cc1ccc(-c2cncc3c2CCN3S(=O)(=O)c2ccc(C(F)(F)F)cc2)cc1 [C4, 4-(1-((4-(Trifluoromethyl)phenyl)sulfonyl)-2,3-dihydro-1H-pyrrolo[2,3-c]pyridin-4-yl)benzonitrile] |
| 0.4 nM | 1.1 nM | N#Cc1ccc(-c2cncc3c2CCN3S(=O)(=O)c2ccc(Cl)nc2)cc1 [C5, 4-(1-((6-Chloropyridin-3-yl)sulfonyl)-2,3-dihydro-1H-pyrrolo[2,3-c]pyridin-4-yl)benzonitrile] |
| 0.3 nM | 1.2 nM | N#Cc1ccc(-c2cncc3c2CCN3S(=O)(=O)c2cccc(F)c2)cc1 [C6, 4-(1-((3-Fluorophenyl)sulfonyl)-2,3-dihydro-1H-pyrrolo[2,3-c]pyridin-4-yl)benzonitrile] |
| 0.15 nM | 1.9 nM | N#Cc1ccc(-c2cncc3c2CCN3S(=O)(=O)c2ccc(F)cc2)cc1 [C7, 4-(1-((4-Fluorophenyl)sulfonyl)-2,3-dihydro-1H-pyrrolo[2,3-c]pyridin-4-yl)benzonitrile] |
| 1.4 nM | 0.25 nM | Cc1cccc(S(=O)(=O)N2CCc3c(-c4ccc(C#N)cc4)cncc32)c1 [C8, 4-(1-(m-Tolylsulfonyl)-2,3-dihydro-1H-pyrrolo[2,3-c]pyridin-4-yl)benzonitrile] |
| 0.3 nM | 0.5 nM | N#Cc1ccc(-c2cncc3c2CCN3S(=O)(=O)c2cccc([N+](=O)[O-])c2)cc1 [C9, 4-(1-((3-Nitrophenyl)sulfonyl)-2,3-dihydro-1H-pyrrolo[2,3-c]pyridin-4-yl)benzonitrile] |
| 1.3 nM | 1.7 nM | N#Cc1ccc(-c2cncc3c2CCN3S(=O)(=O)c2cccnc2)cc1 [C10, 4-(1-(Pyridin-3-ylsulfonyl)-2,3-dihydro-1H-pyrrolo[2,3-c]pyridin-4-yl)benzonitrile] |
| 1 nM | 0.7 nM | N#Cc1ccc(-c2cncc3c2CCN3S(=O)(=O)c2cccc3cccnc23)cc1 [C11, 4-(1-(Quinolin-8-ylsulfonyl)-2,3-dihydro-1H-pyrrolo[2,3-c]pyridin-4-yl)benzonitrile] |
| 0.17 nM | 0.3 nM | N#Cc1ccc(-c2cncc3c2CCN3S(=O)(=O)c2ccc3ccccc3c2)cc1 [C12, 4-(1-(Naphthalen-2-ylsulfonyl)-2,3-dihydro-1H-pyrrolo[2,3-c]pyridin-4-yl)benzonitrile] |
| 0.6 nM | 0.2 nM | N#Cc1ccc(-c2cncc3c2CCN3S(=O)(=O)c2ccc(Cl)cc2)cc1 [C13, 4-(1-((4-Chlorophenyl)sulfonyl)-2,3-dihydro-1H-pyrrolo[2,3-c]pyridin-4-yl)benzonitrile] |
| 0.5 nM | 0.9 nM | N#Cc1ccc(-c2cncc3c2CCN3S(=O)(=O)c2cccc(Cl)c2)cc1 [C14, 4-(1-((3-Chlorophenyl)sulfonyl)-2,3-dihydro-1H-pyrrolo[2,3-c]pyridin-4-yl)benzonitrile] |
| 0.28 nM | 0.16 nM | N#Cc1ccc(-c2cncc3c2CCN3S(=O)(=O)c2ccc(C#N)cc2)cc1 [C15, 4-((4-(4-Cyanophenyl)-2,3-dihydro-1H-pyrrolo[2,3-c]pyridin-1-yl)sulfonyl)benzonitrile] |
| 1.5 nM | 0.18 nM | N#Cc1ccc(-c2cncc3c2CCN3S(=O)(=O)c2cccc(C#N)c2)cc1 [C16, 3-((4-(4-Cyanophenyl)-2,3-dihydro-1H-pyrrolo[2,3-c]pyridin-1-yl)sulfonyl)benzonitrile] |
| 3.5 nM | 7.8 nM | N#Cc1ccc(-c2cncc3c2CCN3S(=O)(=O)c2cccs2)cc1 [C17, 4-(1-(Thiophen-2-ylsulfonyl)-2,3-dihydro-1H-pyrrolo[2,3-c]pyridin-4-yl)benzonitrile] |
| 0.69 nM | 0.61 nM | N#Cc1ccc(-c2cncc3c2CCN3S(=O)(=O)c2cccc3ccccc23)cc1 [C18, 4-(1-(Naphthalen-1-ylsulfonyl)-2,3-dihydro-1H-pyrrolo[2,3-c]pyridin-4-yl)benzonitrile] |
| 4.3 nM | 9.5 nM | COc1cccc(S(=O)(=O)N2CCc3c(-c4ccc(C#N)cc4)cncc32)c1 [C19, 4-(1-((3-Methoxyphenyl)sulfonyl)-2,3-dihydro-1H-pyrrolo[2,3-c]pyridin-4-yl)benzonitrile] |
| 1.8 nM | 0.4 nM | N#Cc1ccc(-c2cncc3c2CCN3S(=O)(=O)c2cccc(C(F)(F)F)c2)cc1 [C20, 4-(1-((3-[Trifluoromethyl]phenyl)sulfonyl)-2,3-dihydro-1H-pyrrolo[2,3-c]pyridin-4-yl)benzonitrile] |
| 0.01 nM | 0.01 nM | N#Cc1ccc(-c2cncc3c2CCN3S(=O)(=O)c2ccccc2)cc1 [C21, 4-(1-(Phenylsulfonyl)-2,3-dihydro-1H-pyrrolo[2,3-c]pyridin-4-yl)benzonitrile] |
| 2 nM | 112 nM | N#Cc1ccc(-c2cncc3c2CCN3C(=O)c2ccc(C(F)(F)F)cc2)cc1 [C22, 4-(1-(4-(Trifluoromethyl)benzoyl)-2,3-dihydro-1H-pyrrolo[2,3-c]pyridin-4-yl)benzonitrile] |
| 7 nM | 310 nM | N#Cc1ccc(-c2cncc3c2CCN3C(=O)c2cccc(C(F)(F)F)c2)cc1 [C23, 4-(1-(3-(Trifluoromethyl)benzoyl)-2,3-dihydro-1H-pyrrolo[2,3-c]pyridin-4-yl)benzonitrile] |
| 2.3 nM | 124 nM | COc1ccc(C(=O)N2CCc3c(-c4ccc(C#N)cc4)cncc32)cc1 [C24, 4-(1-(4-Methoxybenzoyl)-2,3-dihydro-1H-pyrrolo[2,3-c]pyridin-4-yl)benzonitrile] |
| 30 nM | 988 nM | N#Cc1ccc(-c2cncc3c2CCN3C(=O)c2ccc(F)cc2)cc1 [C25, 4-(1-(4-Fluorobenzoyl)-2,3-dihydro-1H-pyrrolo[2,3-c]pyridin-4-yl)benzonitrile] |
| 2.3 nM | 356 nM | COc1cccc(C(=O)N2CCc3c(-c4ccc(C#N)cc4)cncc32)c1 [C26, 4-(1-(3-Methoxybenzoyl)-2,3-dihydro-1H-pyrrolo[2,3-c]pyridin-4-yl)benzonitrile] |
| 2.3 nM | 117 nM | N#Cc1ccc(-c2cncc3c2CCN3C(=O)c2cccc([N+](=O)[O-])c2)cc1 [C27, 4-(1-(3-Nitrobenzoyl)-2,3-dihydro-1H-pyrrolo[2,3-c]pyridin-4-yl)benzonitrile] |
| 7 nM | 310 nM | N#Cc1ccc(-c2cncc3c2CCN3C(=O)c2cccc(F)c2)cc1 [C28, 4-(1-(3-fluorobenzoyl)-2,3-dihydro-1H-pyrrolo[2,3-c]pyridin-4-yl)benzonitrile] |
| 1.7 nM | 185 nM | N#Cc1ccc(-c2cncc3c2CCN3C(=O)c2cccnc2)cc1 [C29, 4-(1-Nicotinoyl-2,3-dihydro-1H-pyrrolo[2,3-c]pyridin-4-yl)benzonitrile] |
